The record followed here is US8217049B2, “Use of type V phosphodiesterase inhibitors in the treatment of exercise induced pulmonary hemorrhage in the equine” (ANOxA Corp., priority 2006, dated 2012).

For series [1], the system named is exercise induced pulmonary hemorrhage (EIPH); blood in the trachea. Nature of the series: Endoscopic EIPH scoring (Pascoe et al. 1985) after maximum exercise, placebo-controlled crossover. It counts as in vivo. On the set-up: key: 0: Zero indicates an absence of EIPH; 1 to 4 indicated increasing amounts of blood observed endoscopically in the trachea. As to conditions: 10 μg/kg of E4021 prior to maximum exercise (>1,000 meters); videoendoscopy about 60 to 90 minutes after exercise; one value per individual horse (Horse 1-8) with previous EIPH; sesquihydrate. The method, then: (§1) Eight horses with previous evidence of EIPH were enrolled in the study. The candidate horses served as their own control and a predetermined rest period (no maximum exercise events) of one week was adhered to prior to initiation of the protocol. On initiation of the trial the subject horse received, prior to maximum exercise, either a dose of 10 μg/kg of weight of E4021 or a placebo. The eight horses were exercised in training/mock racing conditions at maximum intensity for greater than 1,000 meters followed by endoscopic exam/scoring about 60 to 90 minutes after the exercise event. Following exercise, the horses were examined with videoendoscopy for evidence of blood in the trachea about 60 minutes to 90 minutes after maximum exercise. The endoscope was passed to the level of the bifurcation of the trachea (carina) with images recorded on videotape.
An objective scoring system (Pascoe et al. 1985) was used to indicate the presence or absence of EIPH, as well as its severity, if present. […] Scoring was done by the veterinarian conducting the examination, then later by another individual using the recorded examination. […]
The E4021 was administered from vials containing 50 mg of E4021/30 ml. […] The Pl score was after placebo intervention and the post Tx Score was recorded after administration of E4021. […]

The nature of series [2]: Untoward effects and systemic hemodynamics in the treated horses. It counts as in vivo, horse. As to conditions: eight horses, 10 μg/kg of E4021 prior to maximum exercise. Here is the method:
as §1

Values joined by “and” are separate entries in the source; they are usually repeats but may differ in a detail not shown here. Identical values can stand only once.

Turning to `O.O.O.O=C([O-])C1CCN(c2nc(NCc3ccc4c(c3)OCO4)c3cc(Cl)ccc3n2)CC1.O=C([O-])C1CCN(c2nc(NCc3ccc4c(c3)OCO4)c3cc(Cl)ccc3n2)CC1.[Na+].[Na+]` [E4021], the “Post Tx (EIPH endoscopic score recorded after administration of E4021)” value in series [1] was 0 (3×) and 3 and 1 and 2. Moreover, in series [2], the Untoward effects result is given as “did not experience any untoward effects”. Also, the “Systemic hemodynamics (e.g. cardiac output, blood pressure)” value in series [2] (versus controls) is given as “remained unchanged from controls”.
